Source: ChEMBL document CHEMBL1201862, “PubChem BioAssay data set” (2004)
Activity calls are given as the source filed them.

Key:
[1] = biological target: Endoplasmic reticulum aminopeptidase 1 (Homo sapiens, UniProt Q9NZ08); test: ERAP1 aminopeptidase inhibitors, dose response, biochemical, cherry-pick, set 2, plate reader (AID 743314)
[2] = A2780 ovarian cancer cell cytotoxicity, dose response, cytotoxicity control, plate reader, dry powder samples (AID 743046); assay type: functional, cell-based
[3] = cytotoxicity in OVCAR8 ovarian cancer cells, dose response, PAX8 project, cell-based, plate reader, dry powder samples (AID 743197); assay type: functional; conditions: OVCAR-8
[4] = NIH:OVCAR-3 ovarian cancer cell cytotoxicity, dose response, PAX8 inhibitor project, plate reader, dry powder samples (AID 743044); assay type: functional, cell-based
[5] = biological target: Paired box protein Pax-8 (Homo sapiens, UniProt Q06710); test: inhibitors of PAX8-driven TPO luciferase reporter, dose response, RMG-I cells, cherry-pick (AID 687027); assay type: functional, cell-based;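 note: luciferase reporter driven by Pax8 target thyroperoxidase promoter measured by SteadyGlo luminescence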
Paired box protein Pax-8, sequence (Q06710 whole entry): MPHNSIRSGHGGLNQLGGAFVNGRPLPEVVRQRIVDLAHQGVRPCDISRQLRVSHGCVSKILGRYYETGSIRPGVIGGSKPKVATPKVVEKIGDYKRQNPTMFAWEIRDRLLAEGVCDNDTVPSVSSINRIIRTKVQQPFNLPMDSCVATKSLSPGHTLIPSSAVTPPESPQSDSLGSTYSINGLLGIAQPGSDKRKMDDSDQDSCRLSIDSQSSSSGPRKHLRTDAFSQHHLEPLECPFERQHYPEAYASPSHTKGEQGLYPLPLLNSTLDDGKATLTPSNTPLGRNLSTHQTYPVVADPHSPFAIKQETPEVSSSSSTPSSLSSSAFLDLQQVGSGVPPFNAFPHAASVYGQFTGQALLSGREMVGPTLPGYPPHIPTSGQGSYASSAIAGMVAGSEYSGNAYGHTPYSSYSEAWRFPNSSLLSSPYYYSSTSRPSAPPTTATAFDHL

[6] = IGROV1 ovarian cancer cell cytotoxicity, dose response, PAX8 inhibitor project, plate reader, dry powder samples (AID 743043); assay type: functional, cell-based; conditions: IGROV-1
[7] = biological target: T1, Methionyl-tRNA synthetase, putative (Trypanosoma brucei brucei, UniProt Q38C91); assay type: functional, Trypanosoma brucei brucei strain 927/4 GUTat10.1
T1 sequence (Q38C91 whole entry): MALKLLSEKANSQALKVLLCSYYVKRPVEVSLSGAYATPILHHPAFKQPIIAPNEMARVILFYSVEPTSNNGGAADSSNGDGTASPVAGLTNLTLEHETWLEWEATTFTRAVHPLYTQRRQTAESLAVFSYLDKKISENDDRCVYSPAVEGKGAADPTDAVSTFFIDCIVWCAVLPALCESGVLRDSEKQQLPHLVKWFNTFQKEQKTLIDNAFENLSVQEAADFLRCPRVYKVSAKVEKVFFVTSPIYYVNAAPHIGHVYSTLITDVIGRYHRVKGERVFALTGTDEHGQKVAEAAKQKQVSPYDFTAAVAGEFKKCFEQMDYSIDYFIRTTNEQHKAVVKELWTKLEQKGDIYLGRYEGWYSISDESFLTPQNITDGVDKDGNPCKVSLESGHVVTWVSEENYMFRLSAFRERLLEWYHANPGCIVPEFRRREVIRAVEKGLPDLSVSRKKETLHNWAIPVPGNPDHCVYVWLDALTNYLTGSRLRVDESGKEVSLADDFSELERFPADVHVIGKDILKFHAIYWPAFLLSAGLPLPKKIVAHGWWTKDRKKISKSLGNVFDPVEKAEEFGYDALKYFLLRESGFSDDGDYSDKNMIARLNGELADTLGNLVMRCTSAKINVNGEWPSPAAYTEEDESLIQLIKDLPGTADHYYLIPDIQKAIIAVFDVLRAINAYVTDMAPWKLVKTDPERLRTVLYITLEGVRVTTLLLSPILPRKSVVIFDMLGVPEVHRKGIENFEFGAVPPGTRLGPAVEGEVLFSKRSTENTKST

[8] = biological target: T1, Methionyl-tRNA synthetase, putative; assay type: functional, Trypanosoma brucei brucei strain 927/4 GUTat10.1; remark: listed apart in the source
[9] = Counterscreen for inhibitors of Trypanosoma brucei methionyl tRNA synthetase (MetRS): Luminescence-based cell-based high throughput dose response assay to identify compounds that are cytotoxic to Jurkat human T lymphocyte cells.; assay type: functional
[10] = Late stage counterscreen for inhibitors of Trypanosoma brucei methionyl tRNA synthetase (MetRS): Luminescence-based cell-based high throughput dose response assay to identify compounds that are cytotoxic to Jurkat human T lymphocyte cells.; assay type: functional
[11] = CEM21 cell cytotoxicity, dose response, cytotoxicity control, plate reader, dry powder (AID 687026); assay type: functional, cell-based
[12] = biological target: NS3 (Hepatitis C virus, UniProt A3EZJ3); test: HCV NS3 helicase inhibitor potency, dose response, biochemical, fluorescence polarization, ChemBridge library (AID 743264)
[13] = biological target: T2, Small ubiquitin-related modifier 2 (Homo sapiens, UniProt P61956); test: inhibitors of SUMO2 protein-protein interaction, dose response, selectivity assay for SUMO1 interaction inhibitor project, biochemical, FRET, human SUMO2, uHTS hits (AID 624384); assay type: functional; conditions: read-out: IC50_Mean
T2 sequence (P61956 whole entry): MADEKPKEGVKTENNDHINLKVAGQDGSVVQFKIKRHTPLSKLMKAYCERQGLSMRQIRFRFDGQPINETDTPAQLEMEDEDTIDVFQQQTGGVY

[14] = biological target: DNA (cytosine-5)-methyltransferase 1 (Homo sapiens, UniProt P26358); test: DNMT1 methyltransferase inhibitors, confirmation, biochemical, fluorescent molecular beacon (AID 602386); assay type: functional
[15] = biological target: T3, Small ubiquitin-related modifier 1 (Homo sapiens, UniProt P63165); test: inhibitors of SUMO1 peptide binding, dose response, biochemical, fluorescence polarization, uHTS hits (AID 624382); assay type: functional; conditions: read-out: IC50_Mean
T3 sequence (P63165 whole entry): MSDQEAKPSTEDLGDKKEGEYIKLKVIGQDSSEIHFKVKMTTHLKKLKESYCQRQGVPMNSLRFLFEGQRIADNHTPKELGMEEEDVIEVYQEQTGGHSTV

[16] = biological target: NAD-dependent protein deacylase sirtuin-5, mitochondrial (Homo sapiens, UniProt Q9NXA8); test: SIRT5 desuccinylase inhibitors, dose response, biochemical, fluorescence imaging, cherry-pick, set 5 (AID 720591);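 note: desuccinylation of succinyl peptide AMC substrate read as fluorescence after trypsin release; potency of inhibitors that lower fluorescence and may act on trypsin instead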
NAD-dependent protein deacylase sirtuin-5, mitochondrial, sequence (Q9NXA8 whole entry, the tested form may be a part): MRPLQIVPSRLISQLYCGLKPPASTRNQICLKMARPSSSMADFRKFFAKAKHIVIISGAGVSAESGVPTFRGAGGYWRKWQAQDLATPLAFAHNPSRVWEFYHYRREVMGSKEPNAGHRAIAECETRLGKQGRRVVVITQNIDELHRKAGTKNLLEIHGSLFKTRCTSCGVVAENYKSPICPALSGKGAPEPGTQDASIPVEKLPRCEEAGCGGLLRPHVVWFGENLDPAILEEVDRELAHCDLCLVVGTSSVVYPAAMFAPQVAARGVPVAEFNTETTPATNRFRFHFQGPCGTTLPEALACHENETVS

[17] = biological target: T4, Fatty acid synthase (Homo sapiens, UniProt P49327); test: FAS thioesterase domain inhibitors, dose response, biochemical, endpoint fluorescence intensity, uHTS hits (AID 624327); assay type: functional;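 note: fluorescence from hydrolysis of an O-methyl fluorescein acyl ester substrate by the enzyme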
T4 sequence (P49327 whole entry, the tested form may be a part): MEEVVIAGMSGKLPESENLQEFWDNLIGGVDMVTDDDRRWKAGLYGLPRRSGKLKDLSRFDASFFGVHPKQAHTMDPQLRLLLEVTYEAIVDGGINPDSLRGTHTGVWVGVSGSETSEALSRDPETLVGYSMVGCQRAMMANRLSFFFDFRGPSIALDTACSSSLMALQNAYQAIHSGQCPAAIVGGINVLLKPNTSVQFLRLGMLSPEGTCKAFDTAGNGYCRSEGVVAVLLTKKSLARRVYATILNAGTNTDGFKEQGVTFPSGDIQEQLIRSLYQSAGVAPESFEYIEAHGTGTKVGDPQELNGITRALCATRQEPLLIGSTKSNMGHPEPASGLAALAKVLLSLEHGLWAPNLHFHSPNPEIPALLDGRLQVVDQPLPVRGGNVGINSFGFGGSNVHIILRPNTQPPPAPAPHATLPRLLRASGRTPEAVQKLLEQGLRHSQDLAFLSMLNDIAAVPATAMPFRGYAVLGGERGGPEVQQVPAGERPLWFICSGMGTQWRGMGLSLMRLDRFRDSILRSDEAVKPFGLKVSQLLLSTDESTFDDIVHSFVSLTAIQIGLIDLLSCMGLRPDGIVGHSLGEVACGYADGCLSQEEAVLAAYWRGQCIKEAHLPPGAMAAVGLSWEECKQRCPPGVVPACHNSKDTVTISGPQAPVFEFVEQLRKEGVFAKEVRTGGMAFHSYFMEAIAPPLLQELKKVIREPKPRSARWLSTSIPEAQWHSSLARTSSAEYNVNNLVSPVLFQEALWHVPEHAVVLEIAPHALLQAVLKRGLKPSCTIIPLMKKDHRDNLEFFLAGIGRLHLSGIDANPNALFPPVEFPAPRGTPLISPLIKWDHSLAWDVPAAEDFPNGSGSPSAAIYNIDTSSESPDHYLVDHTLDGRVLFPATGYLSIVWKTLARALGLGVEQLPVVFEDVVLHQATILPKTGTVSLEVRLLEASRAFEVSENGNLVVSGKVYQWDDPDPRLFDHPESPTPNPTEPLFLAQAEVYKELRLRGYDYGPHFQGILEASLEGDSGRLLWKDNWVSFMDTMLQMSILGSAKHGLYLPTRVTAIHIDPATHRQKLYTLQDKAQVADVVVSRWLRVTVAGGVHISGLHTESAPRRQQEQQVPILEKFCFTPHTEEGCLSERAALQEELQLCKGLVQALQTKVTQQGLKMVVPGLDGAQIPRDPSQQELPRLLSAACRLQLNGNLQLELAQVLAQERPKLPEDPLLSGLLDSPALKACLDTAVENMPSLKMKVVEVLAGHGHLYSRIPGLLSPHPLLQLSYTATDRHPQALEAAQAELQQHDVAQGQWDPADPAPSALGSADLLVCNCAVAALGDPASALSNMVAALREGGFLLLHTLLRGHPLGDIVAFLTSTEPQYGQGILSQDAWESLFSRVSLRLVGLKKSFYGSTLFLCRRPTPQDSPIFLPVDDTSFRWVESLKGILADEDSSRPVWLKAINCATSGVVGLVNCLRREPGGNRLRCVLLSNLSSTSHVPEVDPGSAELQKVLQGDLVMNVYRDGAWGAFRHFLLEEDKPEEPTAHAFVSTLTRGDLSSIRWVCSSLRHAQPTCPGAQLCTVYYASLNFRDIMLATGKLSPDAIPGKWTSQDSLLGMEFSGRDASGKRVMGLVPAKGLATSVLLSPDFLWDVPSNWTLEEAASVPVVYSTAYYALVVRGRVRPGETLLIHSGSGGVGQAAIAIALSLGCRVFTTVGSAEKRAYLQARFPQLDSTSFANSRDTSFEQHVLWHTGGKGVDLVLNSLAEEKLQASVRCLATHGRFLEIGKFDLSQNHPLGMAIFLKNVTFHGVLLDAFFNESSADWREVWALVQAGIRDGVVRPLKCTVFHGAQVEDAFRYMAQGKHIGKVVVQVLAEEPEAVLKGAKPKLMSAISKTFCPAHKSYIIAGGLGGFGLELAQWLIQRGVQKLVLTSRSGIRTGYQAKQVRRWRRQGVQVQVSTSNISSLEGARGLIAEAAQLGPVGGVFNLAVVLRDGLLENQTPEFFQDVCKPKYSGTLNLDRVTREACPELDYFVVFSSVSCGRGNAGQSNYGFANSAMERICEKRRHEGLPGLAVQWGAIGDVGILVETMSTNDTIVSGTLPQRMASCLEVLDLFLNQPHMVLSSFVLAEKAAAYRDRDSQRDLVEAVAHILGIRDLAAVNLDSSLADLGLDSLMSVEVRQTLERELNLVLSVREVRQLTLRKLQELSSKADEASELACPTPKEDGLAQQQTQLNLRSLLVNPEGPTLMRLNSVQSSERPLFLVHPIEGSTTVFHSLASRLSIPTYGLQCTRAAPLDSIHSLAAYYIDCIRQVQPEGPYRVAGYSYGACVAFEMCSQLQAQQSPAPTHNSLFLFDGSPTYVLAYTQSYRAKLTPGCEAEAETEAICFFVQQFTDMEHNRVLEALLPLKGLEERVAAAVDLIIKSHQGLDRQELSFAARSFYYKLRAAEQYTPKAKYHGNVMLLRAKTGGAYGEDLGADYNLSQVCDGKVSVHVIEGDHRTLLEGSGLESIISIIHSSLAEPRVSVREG

[18] = biological target: T5, Corticotropin-releasing factor receptor 2/Corticotropin-releasing factor-binding protein (Homo sapiens, UniProt P24387+Q13324); test: Dose Response confirmation of uHTS hits for small molecule antagonists of the CRF-binding protein and CRF-R2 receptor complex.; assay type: functional; conditions: read-out: IC50_Mean
T5 sequence (Q13324 whole entry): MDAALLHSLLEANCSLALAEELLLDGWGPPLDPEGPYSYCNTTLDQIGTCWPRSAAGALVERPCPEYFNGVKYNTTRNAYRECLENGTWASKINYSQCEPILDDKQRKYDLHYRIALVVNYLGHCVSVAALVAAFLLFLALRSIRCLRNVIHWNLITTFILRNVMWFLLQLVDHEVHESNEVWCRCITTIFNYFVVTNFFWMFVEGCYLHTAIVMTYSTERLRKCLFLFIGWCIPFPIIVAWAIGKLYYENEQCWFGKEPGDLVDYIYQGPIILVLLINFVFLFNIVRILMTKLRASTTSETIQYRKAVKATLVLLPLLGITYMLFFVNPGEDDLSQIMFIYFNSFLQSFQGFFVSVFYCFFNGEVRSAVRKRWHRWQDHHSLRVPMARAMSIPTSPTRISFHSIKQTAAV
T5 sequence (P24387 whole entry): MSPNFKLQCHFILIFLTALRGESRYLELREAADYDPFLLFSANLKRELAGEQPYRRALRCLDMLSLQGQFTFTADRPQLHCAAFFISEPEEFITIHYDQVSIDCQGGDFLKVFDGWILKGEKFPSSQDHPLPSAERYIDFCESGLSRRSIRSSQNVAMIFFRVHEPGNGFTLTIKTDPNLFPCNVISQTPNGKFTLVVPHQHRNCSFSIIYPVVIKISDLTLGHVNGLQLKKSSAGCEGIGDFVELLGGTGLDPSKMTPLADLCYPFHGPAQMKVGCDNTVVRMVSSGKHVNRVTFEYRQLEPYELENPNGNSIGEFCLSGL

[19] = biological target: T5, Corticotropin-releasing factor receptor 2/Corticotropin-releasing factor-binding protein; test: activators of CRF receptor 2 with binding protein – uHTS hits, confirmation (AID 602473); assay type: functional; conditions: read-out: EC50_Mean
[20] = biological target: T3, Small ubiquitin-related modifier 1; test: inhibitors of SUMO1 partner interactions, dose response, biochemical, FRET (AID 624383); assay type: functional; conditions: read-out: IC50_Mean
[21] = CRF-BP/CRF-R2 complex antagonists, dose response, cell-based, uHTS hits, 384-well (AID 651639); assay type: functional, Homo sapiens; conditions: read-out: IC50_Mean
[22] = biological target: T2, Small ubiquitin-related modifier 2; test: SUMO2–SIM peptide binding inhibitors, dose response, selectivity assay for SUMO1 interaction inhibitor project, biochemical, fluorescence polarization, uHTS hits (AID 624385); assay type: functional; conditions: read-out: IC50_Mean
[23] = biological target: T4, Fatty acid synthase; test: FAS thioesterase domain inhibitors, dose response, biochemical, kinetic fluorescence intensity (AID 624326); assay type: functional;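 note: rate of fluorescence rise from hydrolysis of a fluorogenic O-methyl fluorescein ester substrate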
[24] = A549 cell cytotoxicity, dose response, cytotoxicity control, 24 h, CellTiter-Glo luminescence, cherry-picks (AID 1053115); assay type: functional, cell-based; conditions: A549, 24 h
[25] = YAP1 pathway inhibition via CTGF transcript levels, dose response, cell-based, DLD1 colon cancer, RT-qPCR, cherry-pick (AID 1053122); assay type: functional; conditions: Cancer cell lines
[26] = P. falciparum ATP4 D1247Y mutant growth inhibitors, dose response, NITD609-resistant line, SYBR Green, dry powder (AID 1159571); assay type: functional, cell-based;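 note: parasites synchronized at ring stage by sorbitol before testing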
[27] = LGR2 antagonists, dose response, cell-based, HEK293, CRE-luciferase reporter, cherry pick, set 2 (AID 743343); assay type: functional;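 note: transfected cells were stimulated with diluted bursicon conditioned medium after compound addition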
[28] = IOSE-T80 ovarian epithelial cell cytotoxicity, dose response, cytotoxicity control for PAX8 inhibitor project, plate reader, dry powder samples (AID 743045); assay type: functional, cell-based
[29] = HepG2 cell cytotoxicity, dose response, cytotoxicity control, plate reader, dry powder samples (AID 1159569); assay type: functional, cell-based;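 note: inhibitor potency with signal falling toward the positive control level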
[30] = A549 cell cytotoxicity, dose response, cytotoxicity control, plate reader, cherry-pick, antagonist series (AID 743412); assay type: functional, cell-based
[31] = P. falciparum Dd2 growth inhibitors, dose response, SYBR Green, cherry-picked samples (AID 1159567); assay type: functional, cell-based
[32] = P. falciparum Dd2 growth inhibitors, dose response, SYBR Green, dry powder samples (AID 1159566); assay type: functional, cell-based;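 note: potency for growth inhibition with lower SYBR green DNA signal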
[33] = P. falciparum 3D7-ScDHODH growth inhibitors, dose response, SYBR Green, dry powder samples (AID 1159570); assay type: functional, cell-based;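 note: parasite growth measured after 72 hours of compound exposure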
[34] = HepG2 cell cytotoxicity, dose response, cytotoxicity control, plate reader, cherry-pick, antagonist series (AID 743416); assay type: functional, cell-based
[35] = MC4R antagonists, dose response, counter-screen for LGR2 antagonist project, cell-based, plate reader, cherry pick (AID 743444); assay type: functional;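 note: transfected HEK 293 cells stimulated with alpha-MSH peptide; potency of inhibitors of the alpha-MSH evoked signal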
[36] = HEK293 cell cytotoxicity, dose response, cytotoxicity control, plate reader, cherry-picked samples (AID 743446); assay type: functional, cell-based
[37] = biological target: fMet-Leu-Phe receptor (Homo sapiens, UniProt P21462); test: FPR ligands, dose response (AID 519); assay type: functional
fMet-Leu-Phe receptor, sequence (P21462 whole entry): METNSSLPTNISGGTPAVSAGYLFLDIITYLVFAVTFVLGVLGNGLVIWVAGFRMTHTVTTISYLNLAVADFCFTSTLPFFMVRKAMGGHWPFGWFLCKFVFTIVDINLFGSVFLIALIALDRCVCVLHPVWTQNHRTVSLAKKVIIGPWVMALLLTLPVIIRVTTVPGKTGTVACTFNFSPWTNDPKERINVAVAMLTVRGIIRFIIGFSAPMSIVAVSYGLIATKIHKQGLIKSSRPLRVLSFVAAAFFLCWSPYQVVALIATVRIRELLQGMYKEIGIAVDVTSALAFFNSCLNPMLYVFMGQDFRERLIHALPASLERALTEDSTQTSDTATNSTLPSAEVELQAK

[38] = A375 melanoma cell cytotoxicity, dose response, counter-screen for MITF inhibitor project, CellTiter-Glo luminescence, dry powder, set 2 (AID 624489); assay type: functional, cell-based; conditions: A-375;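 note: actives are compounds lowering A375 viability meaning general cytotoxicity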
[39] = A375 melanoma cell viability loss, dose response, counter-screen for MITF inhibitor project, CellTiter-Glo luminescence, dry powder, set 4 (AID 624364); assay type: functional, cell-based; conditions: A-375;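 note: A375 melanoma cells are MITF independent so this is a counter screen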
[40] = ADAM10 protease inhibitors, dose response, selectivity assay for ADAM17 exosite inhibitor project, biochemical, FRET peptide substrate, recombinant human ADAM10 (AID 743259);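 note: ADAM10 enzyme cleaving a FRET peptide substrate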
[41] = biological target: Disintegrin and metalloproteinase domain-containing protein 17 (Homo sapiens, UniProt P78536); test: exosite inhibitors of ADAM17, dose response, biochemical (AID 743260)
Disintegrin and metalloproteinase domain-containing protein 17, sequence (P78536 whole entry, the tested form may be a part): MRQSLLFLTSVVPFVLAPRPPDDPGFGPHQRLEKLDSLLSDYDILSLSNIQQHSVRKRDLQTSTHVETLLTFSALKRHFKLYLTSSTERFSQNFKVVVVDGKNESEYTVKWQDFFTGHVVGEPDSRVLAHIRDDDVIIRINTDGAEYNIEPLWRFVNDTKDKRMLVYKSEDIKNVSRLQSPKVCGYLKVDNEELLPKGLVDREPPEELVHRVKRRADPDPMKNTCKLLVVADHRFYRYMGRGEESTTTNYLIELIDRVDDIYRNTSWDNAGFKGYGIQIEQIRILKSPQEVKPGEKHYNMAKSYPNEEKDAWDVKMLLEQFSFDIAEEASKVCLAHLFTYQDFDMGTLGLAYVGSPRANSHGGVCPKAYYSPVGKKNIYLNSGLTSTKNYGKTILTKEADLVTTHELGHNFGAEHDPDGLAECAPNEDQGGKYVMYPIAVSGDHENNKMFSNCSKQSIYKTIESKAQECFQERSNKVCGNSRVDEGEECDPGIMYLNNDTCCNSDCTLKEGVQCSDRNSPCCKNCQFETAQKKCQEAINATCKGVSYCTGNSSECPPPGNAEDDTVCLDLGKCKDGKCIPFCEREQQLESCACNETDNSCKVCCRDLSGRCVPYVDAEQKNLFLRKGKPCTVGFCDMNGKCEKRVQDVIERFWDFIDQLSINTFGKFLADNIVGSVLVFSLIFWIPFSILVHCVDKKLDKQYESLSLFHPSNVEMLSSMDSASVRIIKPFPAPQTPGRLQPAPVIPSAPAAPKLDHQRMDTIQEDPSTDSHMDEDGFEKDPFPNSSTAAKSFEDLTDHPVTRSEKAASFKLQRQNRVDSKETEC

[42] = biological target: Induced myeloid leukemia cell differentiation protein Mcl-1 (Homo sapiens, UniProt Q07820); assay type: functional
Induced myeloid leukemia cell differentiation protein Mcl-1, sequence (Q07820 whole entry): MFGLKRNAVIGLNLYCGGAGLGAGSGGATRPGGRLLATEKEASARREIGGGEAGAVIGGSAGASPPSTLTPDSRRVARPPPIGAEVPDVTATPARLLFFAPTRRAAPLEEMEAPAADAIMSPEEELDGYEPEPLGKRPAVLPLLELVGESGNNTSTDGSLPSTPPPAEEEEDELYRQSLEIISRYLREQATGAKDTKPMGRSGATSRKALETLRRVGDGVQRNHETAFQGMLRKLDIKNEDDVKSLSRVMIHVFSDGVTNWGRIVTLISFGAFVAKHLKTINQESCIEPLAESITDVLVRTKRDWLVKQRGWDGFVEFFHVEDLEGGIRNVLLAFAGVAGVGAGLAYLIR

O=c1ccc2cc(O[C@@H]3O[C@@H](CO)[C@H](O)[C@@H](O)[C@@H]3O)c(O)cc2o1
active: AC50 [1] 2.37 µM

COc1ccc(S(=O)(=O)Nc2ccc3c(c2)C(=O)N([C@H](C)CO)C[C@@H](C)[C@@H](CN(C)Cc2ccc(C(F)(F)F)cc2)OCCCC[C@@H](C)O3)cc1
active: AC50 [2] 51.2 µM | AC50 [3] 30.6 µM | AC50 [4] 27.9 µM | AC50 [5] 7.09 µM | AC50 [6] 65.2 µM

Cc1ccc(NC(=O)CN(C)C(=O)CCSc2ccc(F)cc2)cc1
active: IC50 [7] 4.57 µM | IC50 [8] 3.09 µM
inactive: IC50 [9] 83.3 µM | IC50 [10] > 83.3 µM

Cc1ccc(C)n1-c1ccc(C(=O)O)c(O)c1
inactive: AC50 [11] > 70 µM | IC50 [12] 1.85 µM

COc1cc(CCc2ccccc2)c(C(=O)O)c(O)c1C/C=C(/C)CCC=C(C)C
active: IC50 [13] 15.5 µM | IC50 [14] 3.5 µM | IC50 [15] 17.8 µM | AC50 [16] 15.7 µM | IC50 [17] 8.25 µM | IC50 [18] < 0.368 µM | IC50 [20] 14.4 µM | IC50 [21] 3.79 µM | IC50 [23] 8.42 µM
inactive: EC50 [19] > 53 µM | IC50 [22] 28.8 µM

CCOC(=O)[C@@H]1[C@@H]2C=C[C@]3(O2)[C@H](C(=O)NCc2ccccc2)N(CCCCCCO)C(=O)[C@@H]13
active: AC50 [24] 48.1 µM

C[C@@H]1C/C=C/C[C@@H](c2cccc(Cl)c2)NC(=O)[C@H](Cc2ccccc2)N(C)C(=O)c2ccccc2O1.C[C@@H]1C/C=C\C[C@@H](c2cccc(Cl)c2)NC(=O)[C@H](Cc2ccccc2)N(C)C(=O)c2ccccc2O1
active: AC50 [25] 0.492 µM

O=C(C1CC1)N1C[C@@H]2N[C@H](C1)[C@@H]2c1ccc(-c2cccc(F)c2)cc1
active: AC50 [26] 1.04 µM | AC50 [27] 12.5 µM | AC50 [28] 21.1 µM | AC50 [29] 23.2 µM | AC50 [30] 3.9 µM | AC50 [31] 2.2 µM | AC50 [32] 0.778 µM | AC50 [3] 21.2 µM | AC50 [33] 0.9 µM | AC50 [4] 27 µM | AC50 [5] 6.38 µM | AC50 [34] 19.6 µM | AC50 [35] 6.56 µM | AC50 [6] 26.7 µM | AC50 [36] 28.1 µM

CCCc1nc2ccccc2c2nc(N)nn12
inactive: Ki [37] > 66.7 µM

C=CCNC1=C(N2CCOCC2)C(=O)c2ccccc2C1=O
active: AC50 [38] 9.04 µM | AC50 [39] 34.1 µM

CN(C)c1ccc(NC(=O)c2ccc(COc3cccc(Cl)c3)o2)cc1
inactive: IC50 [41] > 69.5 µM
active: IC50 [40] 8.25 µM | IC50 [42] 23.4 µM
